Experimental data taken from PMC11944476, “In Vitro Evaluation of Esters of Quinoxaline-1,4-di-N-oxide Derivatives as New Antitaeniasis Agents and Their Inhibitory Activity Against Triosephosphate Isomerase” (Pharmaceuticals, 2025).

Experiments:
[1] = molecular target: T1, recombinant TsTIM (WT TsTIM) (Taenia solium, UniProt Q9GTX8); experiment: alpha-GDH coupled NADH oxidation at […] nm; type: biochemical; conditions: GAP to DHAP direction
T1 construct: N-terminal six-His tag from pRSET, expressed in E. coli BL21 Codon Plus (DE3)-RIL, IMAC-purified, tag removal not mentioned; TIM is a dimer
T1 sequence (Q9GTX8 whole entry): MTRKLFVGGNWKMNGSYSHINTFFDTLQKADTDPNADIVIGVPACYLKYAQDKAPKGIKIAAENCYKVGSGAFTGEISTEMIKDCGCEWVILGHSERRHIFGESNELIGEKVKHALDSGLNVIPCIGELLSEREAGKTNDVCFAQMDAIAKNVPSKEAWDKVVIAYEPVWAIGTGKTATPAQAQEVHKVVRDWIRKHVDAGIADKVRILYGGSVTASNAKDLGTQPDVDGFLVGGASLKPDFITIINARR

[2] = molecular target: T1, recombinant TsTIM (WT TsTIM); experiment: enzyme inactivation assay, GAP to DHAP, alpha-GDH coupled NADH oxidation at […] nm; type: biochemical

Row | Structure (SMILES) | alpha-GDH coupled NADH oxidation at 340 nm [1] | inhibition at 1000 µM [2]
1 | O=C[C@H](O)COP(=O)(O)O [glyceraldehyde 3-phosphate] | measuring the conversion of glyceraldehyde 3-phosphate (GAP) to dihydroxyacetone phosphate (DHAP) | –
2 | CCOC(=O)c1ccc2c(c1)[n+]([O-])c(C(=O)c1cccs1)c(C(F)(F)F)[n+]2[O-] [TS-12] | – | < 40%
